These results are taken from patent US9738902B2, “Modified PYR/PYL receptors activated by ligands” (priority 2013, dated 2017).

Holding throughout (format): cell-based
Experiment [1] addresses T1, PYR1 K59R F159V (Arabidopsis thaliana, UniProt O49686, F159V/K59R).
T1 construct: expressed in transfected cells; host or cells: S. cerevisiae Y190
The experiment is described as follows: Y2H Pocket Library Screen (HAB1, X-gal). The procedure, abridged: (§1)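 Two-day, 30° C yeast two-hybrid spot assay: Y190 carrying PYR1 mutant and pACT-HAB1 on selective SD (–Leu, –Trp) plus 100 μM compound, scored by β-galactosidase X-gal stain of chloroform-lysed colonies.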

Experiment [2] addresses T2, PYR1 K59R F159I (Arabidopsis thaliana, UniProt O49686, F159I/K59R).
T2 construct: expressed in transfected cells; host or cells: S. cerevisiae Y190 two-hybrid reporter strain
The experiment is described as follows: Y2H Pocket Library Screen (HAB1, X-gal). In outline: as §1

Experiment [3] addresses T3, PYR1 K59R F108E (Arabidopsis thaliana, UniProt O49686, F108E/K59R).
T3 construct: expressed in transfected cells; host or cells: S. cerevisiae Y190 yeast two-hybrid reporter strain
The experiment is described as follows: Y2H Pocket Library Screen (HAB1, X-gal). The procedure, abridged:
as §1

Experiment [4] concerns the target T4, PYR1 K59R F159L (Arabidopsis thaliana, UniProt O49686, F159L/K59R).
T4 construct: expressed in transfected cells; host or cells: S. cerevisiae Y190
The experiment is described as follows: Y2H Pocket Library Screen (HAB1, X-gal). The procedure, abridged: as §1

Experiment [5] addresses T5, PYR1 K59R F108A S122G L87A (Arabidopsis thaliana, UniProt O49686, F108A/K59R/L87A/S122G).
T5 construct: expressed in transfected cells; host or cells: S. cerevisiae Y190 pACT-HAB1
The experiment is described as follows: Y2H NNK Mutagenesis (HAB1, X-gal). As to the method:
(§2) The preceding efforts identified PYR1^K59R,F108A,S122G, which is responsive to mandipropamid concentrations as low as 1 μM. We next attempted to improve the mandipropamid receptor by screening for additional pocket-located mutations that improve compound responsiveness. We subjected PYR1^K59R,F108A,S122G to two separate mutagenesis experiments. We first examined the effects of adding single additional mutations at each of the other 23 ligand-contacting residues that are not altered in the PYR1^K59R,F108A,S122G backbone, using NNK codon-randomization primers. Each NNK primer was used to generate a pool of PYR1^K59R,F108A,S122G receptors containing additional mutations at a single ligand-contacting residue. DNA for this mutant pool was prepared and then transformed into a pACT-HAB1 MAV99 reporter strain, which allows URA3 based selection of active receptors (Peterson et al., 2010). The pooled yeast cells were plated on media containing 0.5 μM mandipropamid, a concentration too low to allow growth of a control MAV99 pACT-HAB1 reporter strain expressing pBD-PYR1^K59R,F108A,S122G. […] Mutants enabling ligand-dependent interactions were sequenced and plasmid DNA for these mutants was isolated and introduced into Y190 pACT-HAB1 so that X-gal staining could be utilized to evaluate receptor sensitivity. This process was repeated for each of the remaining 22 NNK primers. These efforts yielded 10 mutations (V81C, V81I, V81T, V83L, L87A, F159L, F159M, F159V, A160V, V164I) that enhance the mandipropamid sensitivity of PYR1^K59R,F108A,S122G (see entries labeled “NNK Mutagenesis Screen” in Table 1).

The target in experiment [6] is T6, PYR1 K59R F108A S122G F159L (Arabidopsis thaliana, UniProt O49686, F108A/F159L/K59R/S122G).
T6 construct: expressed in transfected cells; host or cells: S. cerevisiae Y190 pACT-HAB1
The experiment is described as follows: Y2H NNK Mutagenesis (HAB1, X-gal). As to the method:
as §2

In experiment [7] the target is T7, PYR1 K59R F108A S122G V81C (Arabidopsis thaliana, UniProt O49686, F108A/K59R/S122G/V81C).
T7 construct: expressed in transfected cells; host or cells: S. cerevisiae Y190 pACT-HAB1
The experiment is described as follows: Y2H NNK Mutagenesis (HAB1, X-gal). On the procedure: as §2

The target in experiment [8] is T8, PYR1 K59R F108A S122G A160V (Arabidopsis thaliana, UniProt O49686, A160V/F108A/K59R/S122G).
T8 construct: expressed in transfected cells; host or cells: S. cerevisiae Y190 pACT-HAB1
The experiment is described as follows: Y2H NNK Mutagenesis (HAB1, X-gal). On the procedure: as §2

The target in experiment [9] is T9, PYR1 K59R F108A S122G V164I (Arabidopsis thaliana, UniProt O49686, F108A/K59R/S122G/V164I).
T9 construct: expressed in transfected cells; host or cells: S. cerevisiae Y190 pACT-HAB1
The experiment is described as follows: Y2H NNK Mutagenesis (HAB1, X-gal). On the procedure:
as §2

Experiment [10] has as its target T10, PYR1 K59R F108A S122G F159M (Arabidopsis thaliana, UniProt O49686, F108A/F159M/K59R/S122G).
T10 construct: expressed in transfected cells; host or cells: S. cerevisiae Y190 pACT-HAB1
The experiment is described as follows: Y2H NNK Mutagenesis (HAB1, X-gal). As to the method:
as §2

In experiment [11] the target is T11, PYR1 K59R F108A S122G F159V (Arabidopsis thaliana, UniProt O49686, F108A/F159V/K59R/S122G).
T11 construct: expressed in transfected cells; host or cells: S. cerevisiae Y190 pACT-HAB1
The experiment is described as follows: Y2H NNK Mutagenesis (HAB1, X-gal). As to the method:
as §2

For experiment [12], the target named is T12, PYR1 K59R F108A S122G V83L (Arabidopsis thaliana, UniProt O49686, F108A/K59R/S122G/V83L).
T12 construct: expressed in transfected cells; host or cells: S. cerevisiae Y190 pACT-HAB1
The experiment is described as follows: Y2H NNK Mutagenesis (HAB1, X-gal). On the procedure:
as §2

In experiment [13] the target is T13, PYR1 K59R F108A S122G V81T (Arabidopsis thaliana, UniProt O49686, F108A/K59R/S122G/V81T).
T13 construct: expressed in transfected cells; host or cells: S. cerevisiae Y190 pACT-HAB1
The experiment is described as follows: Y2H NNK Mutagenesis (HAB1, X-gal). On the procedure: as §2

For experiment [14], the target named is T14, PYR1 K59R F108A S122G V81I (Arabidopsis thaliana, UniProt O49686, F108A/K59R/S122G/V81I).
T14 construct: expressed in transfected cells; host or cells: S. cerevisiae Y190 pACT-HAB1
The experiment is described as follows: Y2H NNK Mutagenesis (HAB1, X-gal). On the procedure: as §2

T1 sequence (O49686 whole entry K59R/F159V): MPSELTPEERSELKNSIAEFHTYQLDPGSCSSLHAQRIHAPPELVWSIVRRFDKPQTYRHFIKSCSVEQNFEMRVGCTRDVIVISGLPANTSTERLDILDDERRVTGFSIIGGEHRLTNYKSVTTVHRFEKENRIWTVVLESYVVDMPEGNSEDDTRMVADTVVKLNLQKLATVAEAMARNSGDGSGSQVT
T1 sequence (Q9CAJ0 23-511, further chain): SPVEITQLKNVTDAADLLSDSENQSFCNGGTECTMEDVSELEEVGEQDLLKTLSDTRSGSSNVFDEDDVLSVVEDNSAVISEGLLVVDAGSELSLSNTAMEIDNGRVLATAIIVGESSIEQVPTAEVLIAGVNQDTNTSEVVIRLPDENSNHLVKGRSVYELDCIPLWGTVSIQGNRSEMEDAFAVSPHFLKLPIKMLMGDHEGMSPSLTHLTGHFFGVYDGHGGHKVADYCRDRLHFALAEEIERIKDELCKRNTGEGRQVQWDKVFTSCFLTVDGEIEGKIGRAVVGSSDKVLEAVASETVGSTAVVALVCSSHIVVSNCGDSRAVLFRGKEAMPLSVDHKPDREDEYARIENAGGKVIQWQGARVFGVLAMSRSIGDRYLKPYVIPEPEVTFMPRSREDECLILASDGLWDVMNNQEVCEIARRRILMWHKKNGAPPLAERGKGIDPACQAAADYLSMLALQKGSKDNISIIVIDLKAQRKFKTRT
T2 sequence (O49686 whole entry K59R/F159I): as the sequence (O49686 whole entry K59R/F159V) above, with V159I counted along it
T2 sequence (Q9CAJ0 23-511, further chain): as the sequence (Q9CAJ0 23-511, further chain) above
T3 sequence (O49686 whole entry K59R/F108E): as the sequence (O49686 whole entry K59R/F159V) above, with F108E, V159F counted along it
T3 sequence (Q9CAJ0 23-511 partner): as the sequence (Q9CAJ0 23-511, further chain) above
T4 sequence (O49686 whole entry K59R/F159L): as the sequence (O49686 whole entry K59R/F159V) above, with V159L counted along it
T4 sequence (Q9CAJ0 23-511, further chain): as the sequence (Q9CAJ0 23-511, further chain) above
T10 sequence (O49686 whole entry K59R/F108A/S122G/F159M): as the sequence (O49686 whole entry K59R/F159V) above, with F108A, S122G, V159M counted along it
T10 sequence (Q9CAJ0 23-511 partner): as the sequence (Q9CAJ0 23-511, further chain) above
T11 sequence (O49686 whole entry K59R/F108A/S122G/F159V): as the sequence (O49686 whole entry K59R/F159V) above, with F108A, S122G counted along it
T11 sequence (Q9CAJ0 23-511 partner): as the sequence (Q9CAJ0 23-511, further chain) above
T6 sequence (O49686 whole entry K59R/F108A/S122G/F159L): as the sequence (O49686 whole entry K59R/F159V) above, with F108A, S122G, V159L counted along it
T6 sequence (Q9CAJ0 23-511 partner): as the sequence (Q9CAJ0 23-511, further chain) above
T7 sequence (O49686 whole entry K59R/V81C/F108A/S122G): as the sequence (O49686 whole entry K59R/F159V) above, with V81C, F108A, S122G, V159F counted along it
T7 sequence (Q9CAJ0 23-511 partner): as the sequence (Q9CAJ0 23-511, further chain) above
T5 sequence (O49686 whole entry K59R/L87A/F108A/S122G): as the sequence (O49686 whole entry K59R/F159V) above, with L87A, F108A, S122G, V159F counted along it
T5 sequence (Q9CAJ0 23-511 partner): as the sequence (Q9CAJ0 23-511, further chain) above
T12 sequence (O49686 whole entry K59R/V83L/F108A/S122G): as the sequence (O49686 whole entry K59R/F159V) above, with V83L, F108A, S122G, V159F counted along it
T12 sequence (Q9CAJ0 23-511 partner): as the sequence (Q9CAJ0 23-511, further chain) above
T13 sequence (O49686 whole entry K59R/V81T/F108A/S122G): as the sequence (O49686 whole entry K59R/F159V) above, with V81T, F108A, S122G, V159F counted along it
T13 sequence (Q9CAJ0 23-511 partner): as the sequence (Q9CAJ0 23-511, further chain) above
T14 sequence (O49686 whole entry K59R/V81I/F108A/S122G): as the sequence (O49686 whole entry K59R/F159V) above, with V81I, F108A, S122G, V159F counted along it
T14 sequence (Q9CAJ0 23-511 partner): as the sequence (Q9CAJ0 23-511, further chain) above
T8 sequence (O49686 whole entry K59R/F108A/S122G/A160V): as the sequence (O49686 whole entry K59R/F159V) above, with F108A, S122G, V159F, A160V counted along it
T8 sequence (Q9CAJ0 23-511 partner): as the sequence (Q9CAJ0 23-511, further chain) above
T9 sequence (O49686 whole entry K59R/F108A/S122G/V164I): as the sequence (O49686 whole entry K59R/F159V) above, with F108A, S122G, V159F, V164I counted along it
T9 sequence (Q9CAJ0 23-511 partner): as the sequence (Q9CAJ0 23-511, further chain) above

For `N#Cc1c(Cl)cccc1Cl` [Dichlobenil, dichlobenil], the Threshold in experiment [1], in [2], in experiment [3] and in [4] was 100 µM in each case.
As for `C#CCOc1ccc(CCNC(=O)C(OCC#C)c2ccc(Cl)cc2)cc1OC` (stereo not drawn) [Mandipropamid, mandipropamid], the Threshold in experiment [5] came to 0.25 µM; in [6], 0.05 µM; in experiment [7], 0.25 µM; in experiment [8], 0.25 µM; in experiment [9] it was 0.25 µM; in experiment [10], 0.25 µM. The Threshold in experiment [11] amounted to 0.25 µM; in experiment [12], 0.05 µM; in experiment [13] it was 0.25 µM; in experiment [14] it was 0.25 µM; in experiment [1], 100 µM; in experiment [2] it was 100 µM. Moreover, the Threshold in experiment [3] and in experiment [4] was 100 µM throughout.
